Drawing on patent publication US20230226207A1, “Camptothecin Drug Having High-Stability Hydrophilic Connecting Unit And Conjugate Thereof” (SICHUAN BAILI PHARM CO., LTD, priority 2020, published 2023), this text covers IC50 for three compounds.

In general, IC50 refers to the point on the concentration scale where inhibition reaches its midpoint.

The test system of experiment [1] is N87 (human gastric cancer cells). The experiment is described as follows: In vitro proliferation inhibition of N87 tumor cells (MTS). The class given is cell-based. The conditions noted are these: 120 h, 5 days. As for the experimental part: (§1) 1) Experimental Materials • Cells: from the cell bank of the Chinese Academy of Sciences; • Tumor cell culture medium: Gibco; • FBS: BIOWEST;
(§2) 2) Preparation of Medium • Growth medium (with 10% FBS, Penicillin/streptomycin (100 U/mL); • Detection medium (with 1% FBS, Penicillin/streptomycin (100 U/mL);
(§3) Turn on the UV lamp in the biological safety cabinet 30 minutes in advance, and ventilate for 3 minutes. Put the growth medium, detection medium, D-PBS and pancreatin into a 37° C. constant temperature water bath to preheat, then disinfect the surface with alcohol and put it in a biological safety cabinet. Select cells with a confluence of ˜80% (logarithmic growth phase), put them in a biological safety cabinet, aspirate the old medium, rinse with D-PBS, aspirate and discard, digest with trypsin for 2 to 3 minutes, and then add to growth Stop trypsin in the medium, and centrifuge at 500×g for 5 min. Aspirate the centrifugal supernatant, mix well with 4 mL detection medium, take 100 uL for counting (take out 50 uL cell fluid, add 50 μL 0.4% Trypan Blue Stain and mix well, and count after mixing). Plate the plate according to the number of cells set before, and plate 80 uL/well in a 96-well plate. Only add 80 uL detection medium to wells E11, F11, and G11, and add 200 uL DPBS to the edge holes to seal the edges. […]
(§4) Take out the MTS reagent after the test sample is exposed for 5 days. […] After the reaction, the 96-well plate was taken out, the OD490 nm absorbance value was detected in the microplate reader, and the data was recorded, sorted, and stored.

The test system of experiment [2] is SK-BR-3 (human breast adenocarcinoma cells). The experiment is described as follows: In vitro proliferation inhibition of SK-BR-3 tumor cells (MTS). The class given is cell-based. The conditions noted are these: 120 h, SK-BR-3 cells, 5 days. The method, then: as §1, §2, §3, §4

As for `CC[C@@]1(O)C(=O)OCc2c1cc1n(c2=O)Cc2c-1nc1cc(F)c(C)c3c1c2[C@@H](NC(=O)CO)CC3` [d1], the IC50 in experiment [1] is 13.3 nM; in experiment [2] it was 104 nM.
For `CC[C@@]1(O)C(=O)OCc2c1cc1n(c2=O)Cc2c-1nc1cc(F)c(C)c3c1c2[C@@H](NC(=O)[C@H](C)O)CC3` [d3], the figures for the IC50 in experiment [1] and in experiment [2] were 8.03 nM and 183 nM, respectively.
For the compound `CC[C@@]1(O)C(=O)OCc2c1cc1n(c2=O)Cc2c-1nc1cc(F)c(C)c3c1c2[C@@H](NC(=O)[C@H](O)C(F)(F)F)CC3` [d6], the figures for the IC50 in experiment [1] and in experiment [2] were 2.15 nM and 239 nM, respectively.
